In US6355799B1, “Substituted benzene compounds, process for their preparation, and herbicidal and defoliant compositions containing them” (ISK Americas Incorporated, priority 1997, dated 2002):

Legend:
Format in all cases: in vivo
[1] = test system: lambsquarters (Chenopodium album, CHEAL); experiment: Post-emerge test, greenhouse herbicide activity screening; conditions: post-emerge, 14 days after application, rating scale 0-100
Method in brief: (§1)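 Sandy loam pots; pre-emerge: sown 1 d pre-spray, surface-watered after, then bottom-watered. Post-emerge: sown 8–21 d before, 2–3 leaf stage, + 0.25% v/v NIS, bottom-watered. Acetone, 187 l/ha track spray, 15–1000 g ai/ha. 0–100 injury score, day 14.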

[2] = test system: johnsongrass (Sorghum halepense, SORHA); experiment: as above; conditions: post-emerge, 14 days after application, rating scale 0-100
Method in brief: as §1

[3] = test system: ivyleaf morningglory (Ipomoea hederacea, IPOHE); experiment: as above; conditions: post-emerge, 14 days after application, rating scale 0-100
Method in brief: as §1

[4] = test system: barnyardgrass (Echinochloa crus-galli, ECHCG); experiment: as above; conditions: post-emerge, 14 days after application, rating scale 0-100
Method in brief: as §1

[5] = test system: redroot pigweed (Amaranthus retroflexus, AMARE); experiment: as above; conditions: post-emerge, 14 days after application, rating scale 0-100
Method in brief: as §1

[6] = test system: green foxtail (Setaria viridis, SETVI); experiment: as above; conditions: post-emerge, 14 days after application, rating scale 0-100
Method in brief: as §1

[7] = test system: sicklepod (Cassia obtusifolia, CASOB); experiment: as above; conditions: post-emerge, 14 days after application, rating scale 0-100
Method in brief: as §1

[8] = test system: velvetleaf (Abutilon theophrasti, ABUTH); experiment: as above; conditions: post-emerge, 14 days after application, rating scale 0-100
Method in brief: as §1

[9] = test system: large crabgrass (Digitaria sanguinalis, DIGSA); experiment: as above; conditions: post-emerge, 14 days after application, rating scale 0-100
Method in brief: as §1

[10] = test system: field corn (Zea mays L., var. Dekalb 535, CORN); experiment: Pre-emerge test, crop safety; conditions: rated 14 days after application, 0 = no damage, 100 = complete death
Method in brief: (§2)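 Compounds in acetone were track-sprayed at 187 l/ha, 15–1000 g ai/ha, onto sandy loam pots. Pre-emerge seeds were sown one day before spraying, with surface watering afterwards. Post-emerge plants were at the 2–3 leaf stage and sprayed with 0.25% v/v non-ionic surfactant. Injury was rated 0–100 at 14 days.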

[11] = test system: upland rice (Oryza sp., var. Tebonnet, RICE); experiment: Pre-emerge test, crop safety; conditions: rated 14 days after application, 0 = no damage, 100 = complete death
Method in brief: as §2

[12] = test system: field corn (Zea mays L., var. Dekalb 535, CORN); experiment: Post-emerge test, crop safety; conditions: post-emerge, 14 days after application, rating scale 0-100
Method in brief: (§3)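 Visual ratings on a 0-100 scale (0 no damage, 100 all plants dead) were taken at 14 days after treatment. Rates of 15-1000 g ai/ha in acetone, 187 l/ha, were sprayed onto soil one day after planting (pre-emerge) or onto 2-3 leaf plants with 0.25% v/v surfactant (post-emerge).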

[13] = test system: upland rice (Oryza sp., var. Tebonnet, RICE); experiment: Post-emerge test, crop safety; conditions: post-emerge, 14 days after application, rating scale 0-100
Method in brief: as §3

[14] = test system: lambsquarters (Chenopodium album, CHEAL); experiment: Pre-emerge test, greenhouse herbicide activity screening; conditions: rated 14 days after application, 0 = no damage, 100 = complete death
Method in brief: as §3

[15] = test system: johnsongrass (Sorghum halepense, SORHA); experiment: as above; conditions: rated 14 days after application, 0 = no damage, 100 = complete death
Method in brief: as §3

[16] = test system: ivyleaf morningglory (Ipomoea hederacea, IPOHE); experiment: as above; conditions: rated 14 days after application, 0 = no damage, 100 = complete death
Method in brief: as §3

[17] = test system: barnyardgrass (Echinochloa crus-galli, ECHCG); experiment: as above; conditions: rated 14 days after application, 0 = no damage, 100 = complete death
Method in brief: as §3

[18] = test system: green foxtail (Setaria viridis, SETVI); experiment: as above; conditions: rated 14 days after application, 0 = no damage, 100 = complete death
Method in brief: as §3

[19] = test system: sicklepod (Cassia obtusifolia, CASOB); experiment: as above; conditions: rated 14 days after application, 0 = no damage, 100 = complete death
Method in brief: as §3

[20] = test system: velvetleaf (Abutilon theophrasti, ABUTH); experiment: as above; conditions: rated 14 days after application, 0 = no damage, 100 = complete death
Method in brief: as §3

[21] = test system: large crabgrass (Digitaria sanguinalis, DIGSA); experiment: as above; conditions: rated 14 days after application, 0 = no damage, 100 = complete death
Method in brief: as §3

[22] = test system: redroot pigweed (Amaranthus retroflexus, AMARE); experiment: as above; conditions: rated 14 days after application, 0 = no damage, 100 = complete death
Method in brief: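 Herbicidal damage is scored 0 (none) to 100 (complete plant death) two weeks after a simulated field spray. Rates span 15–1000 g ai/ha, delivered in acetone at 187 l/ha. For post-emergence treatments, plants have 2–3 leaves and the spray carries 0.25% v/v non-ionic surfactant.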

`COc1c(Cl)cc(F)c(-n2c(=O)cc(C(F)(F)F)n(C)c2=O)c1NC(=O)COc1ccccc1` [2-119] was tested, and the “phytotoxicity rating CHEAL” value ([1]; 63 g ai/ha) was 80, the “phytotoxicity rating CHEAL” value ([1]; 250 g ai/ha) was 100 and the “phytotoxicity rating SORHA” value ([2]; 63 g ai/ha) was 60. For the same molecule, the “phytotoxicity rating SORHA” value ([2]; 250 g ai/ha) was 90, the “phytotoxicity rating IPOHE” value ([3]; 63 g ai/ha) was 100 and the “phytotoxicity rating IPOHE” value ([3]; 250 g ai/ha) was 100. For the same molecule, the “phytotoxicity rating ECHCG” value ([4]; 63 g ai/ha) was 40, the “phytotoxicity rating ECHCG” value ([4]; 250 g ai/ha) was 90 and the “phytotoxicity rating AMARE” value ([5]; 63 g ai/ha) was 90. For the same molecule, the “phytotoxicity rating AMARE” value ([5]; 250 g ai/ha) was 100, the “phytotoxicity rating SETVI” value ([6]; 63 g ai/ha) was 40 and the “phytotoxicity rating SETVI” value ([6]; 250 g ai/ha) was 90. The “phytotoxicity rating CASOB” value ([7]; 63 g ai/ha) was 30, the “phytotoxicity rating CASOB” value ([7]; 250 g ai/ha) was 60 and the “phytotoxicity rating ABUTH” value ([8]; 63 g ai/ha) was 100. For the same molecule, the “phytotoxicity rating ABUTH” value ([8]; 250 g ai/ha) was 100, the “phytotoxicity rating DIGSA” value ([9]; 63 g ai/ha) was 30 and the “phytotoxicity rating DIGSA” value ([9]; 250 g ai/ha) was 80. The “Pre-emerge phytotoxicity rating (0-100), crop damage, CORN” value ([10]; 63 g ai/ha) was 20, the “Pre-emerge phytotoxicity rating (0-100), crop damage, CORN” value ([10]; 250 g ai/ha) was 90 and the “Pre-emerge phytotoxicity rating (0-100), crop damage, RICE” value ([11]; 63 g ai/ha) was 70. For the same molecule, the “Pre-emerge phytotoxicity rating (0-100), crop damage, RICE” value ([11]; 250 g ai/ha) was 100, the “phytotoxicity rating CORN” value ([12]; 63 g ai/ha) was 70 and the “phytotoxicity rating CORN” value ([12]; 250 g ai/ha) was 90. For the same molecule, the “phytotoxicity rating RICE” value ([13]; 63 g ai/ha) was 60, the “phytotoxicity rating RICE” value ([13]; 250 g ai/ha) was 90 and the “Pre-emerge Herbicidal Activity, phytotoxicity rating (0-100), CHEAL” value ([14]; 63 g ai/ha) was 100. The “Pre-emerge Herbicidal Activity, phytotoxicity rating (0-100), CHEAL” value ([14]; 250 g ai/ha) was 100, the “Pre-emerge Herbicidal Activity, phytotoxicity rating (0-100), SORHA” value ([15]; 63 g ai/ha) was 75 and the “Pre-emerge Herbicidal Activity, phytotoxicity rating (0-100), SORHA” value ([15]; 250 g ai/ha) was 100. The “Pre-emerge Herbicidal Activity, phytotoxicity rating (0-100), IPOHE” value ([16]; 63 g ai/ha) was 70, the “Pre-emerge Herbicidal Activity, phytotoxicity rating (0-100), IPOHE” value ([16]; 250 g ai/ha) was 100 and the “Pre-emerge Herbicidal Activity, phytotoxicity rating (0-100), ECHCG” value ([17]; 63 g ai/ha) was 70. For the same molecule, the “Pre-emerge Herbicidal Activity, phytotoxicity rating (0-100), ECHCG” value ([17]; 250 g ai/ha) was 95, the “Pre-emerge Herbicidal Activity, phytotoxicity rating (0-100), SETVI” value ([18]; 63 g ai/ha) was 100 and the “Pre-emerge Herbicidal Activity, phytotoxicity rating (0-100), SETVI” value ([18]; 250 g ai/ha) was 100. For the same molecule, the “Pre-emerge Herbicidal Activity, phytotoxicity rating (0-100), CASOB” value ([19]; 63 g ai/ha) was 60, the “Pre-emerge Herbicidal Activity, phytotoxicity rating (0-100), CASOB” value ([19]; 250 g ai/ha) was 90 and the “Pre-emerge Herbicidal Activity, phytotoxicity rating (0-100), ABUTH” value ([20]; 63 g ai/ha) was 100. The “Pre-emerge Herbicidal Activity, phytotoxicity rating (0-100), ABUTH” value ([20]; 250 g ai/ha) was 100, the “Pre-emerge Herbicidal Activity, phytotoxicity rating (0-100), DIGSA” value ([21]; 63 g ai/ha) was 70 and the “Pre-emerge Herbicidal Activity, phytotoxicity rating (0-100), DIGSA” value ([21]; 250 g ai/ha) was 100. For the same molecule, the “Pre-emerge Herbicidal Activity, phytotoxicity rating (0-100), AMARE” value ([22]; 63 g ai/ha) was 100 and the “Pre-emerge Herbicidal Activity, phytotoxicity rating (0-100), AMARE” value ([22]; 250 g ai/ha) was 100.
